From ChEMBL document CHEMBL1156829 (Proc Natl Acad Sci U S A, 2008)
Where “and” joins values, the source holds several entries; their conditions need not be identical. Identical values can stand only once.

How the values were obtained:
[1] = tested on: Plasmodium falciparum; assay: NOVARTIS: Inhibition of Plasmodium falciparum 3D7 (drug-susceptible) proliferation in erythrocyte-based infection assay; type: functional, organism-based
[2] = tested on: Huh-7; assay: (§1) NOVARTIS: Cytotoxicity against human hepatocellular carcinoma cell line (Huh7); type: toxicity, cell-based
[3] = tested on: Plasmodium falciparum; assay: NOVARTIS: Inhibition of Plasmodium falciparum W2 (drug-resistant) proliferation in erythrocyte-based infection assay; type: functional, organism-based; settings: read-out: EC50
[4] = as §1; type: toxicity, cell-based, Huh-7; settings: Huh7 cells (hepatocellular carcinoma cell line)

Row | SMILES | EC50 [1] | CC50 ([2]; huh-7, read-out: CC50) | EC50 ([1]; Plasmodium falciparum, 3D7) | EC50 ([3]; Plasmodium falciparum, W2) | CC50 ([2]; huh-7) | EC50 [3] | CC50 [4]
1 | CCOc1ccc(/C=C2/SC(=Nc3ccccc3)NC2=O)cc1OC | 0.662 µM and 1.53 µM | > 100 µM |  |  |  |  | 
2 | OC(CN1CCN(C/C=C/c2ccccc2)CC1)Cn1c2ccc(Cl)cc2c2cc(Cl)ccc21 (stereo not drawn) |  |  | 0.66 µM | 0.162 µM | No fit |  | 
3 | CCN1/C(=C/c2cccc[n+]2C)Sc2ccccc21 | 4.25 µM and 0.44 µM | > 100 µM |  |  |  | 1.07 µM and 2.71 µM | 
4 | C=CCN1C(=O)/C(=C2/Sc3ccc(OC)cc3N2C)SC1=Nc1ccccc1-c1ccccc1 | 2.12 µM | > 100 µM | 1.18 µM | 0.488 µM |  | 0.838 µM | 
5 | CC(C)c1ccc(/C=C2/SC(=Nc3ccccc3)NC2=O)cc1 | 1 µM and 0.479 µM | > 100 µM |  | 1.13 µM |  | 1.01 µM | 
6 | CC[n+]1c(/C=C2\Sc3cc(NC(C)=O)ccc3N2C)ccc2ccccc21 | 0.373 µM and 0.0722 µM | > 100 µM |  |  |  |  | 
7 | CCN(CC)C1SC=C(c2ccc([N+](=O)[O-])cc2)S1 (stereo not drawn) | 0.549 µM | > 96 µM | 0.446 µM |  |  | 0.911 µM and 0.39 µM | 
8 | CC[n+]1c(/C=C2\Sc3ccccc3N2CCO)ccc2cc(C)ccc21 |  | > 10 µM and 56.3 µM |  | > 0.248 µM |  | 0.142 µM | 
9 | CCN1C(=Cc2sc3ccccc3[n+]2CC)[Se]c2ccccc21 | 0.156 µM | 5.34 µM and 11.8 µM | 0.23 µM |  |  |  | 
10 | Cc1ccc2c(c1)N(C)/C(=C/c1cccc[n+]1C)S2 | 0.825 µM | > 10 µM and 22.7 µM |  |  |  |  | 
11 | CC[n+]1c(/C=C2\Sc3ccc(C)cc3N2CCO)ccc2ccccc21 |  | > 10 µM and 29.4 µM |  |  |  |  | 
12 | CN(C)c1ccc(C=Cc2cccc[n+]2C)cc1 | 0.314 µM | 3.03 µM and > 10 µM | 0.248 µM |  |  |  | 
13 | Cc1cc(C)cc(-n2c(C)cc(/C=C3\SC(=Nc4ccc(Cl)cc4)NC3=O)c2C)c1 |  | > 100 µM |  |  |  | 0.0811 µM and 0.704 µM | 
14 | Cn1cc(/C=C/c2cc[n+](C)cc2)c2ccccc21 | 0.215 µM | 7.7 µM |  |  |  |  | 
15 | CC(=NNC(=S)NN)c1ccccn1 |  |  | 1.37 µM | 0.386 µM |  |  | > 10 µM
16 | Cc1ccc(C)c(CN2C(=O)c3ccccc3S(=O)(=O)c3ccc(C(=O)NCCCN4CCCC(C)C4)cc32)c1 (stereo not drawn) |  |  | 1.07 µM | 1.75 µM |  |  | 12 µM

Row | SMILES | EC50 [1] | CC50 ([2]; huh-7, read-out: CC50) | EC50 ([1]; Plasmodium falciparum, 3D7) | EC50 ([3]; Plasmodium falciparum, W2) | CC50 ([2]; huh-7) | EC50 [3] | CC50 [4]
17 | CCOc1ccc(Nc2nc(N3CCCCC3)nc(N3CCCCC3)n2)cc1 |  |  | 1.19 µM | > 1.25 µM |  |  | > 10 µM
18 | COCCNCC(O)CON=C1c2ccccc2-c2ccccc21 (stereo not drawn) |  |  | 4.79 µM | 0.704 µM |  |  | 23.3 µM
19 | O=C(NC(=CC=Cc1ccccc1)C(=O)N1CCOCC1)c1ccc(Br)cc1 |  |  | > 10.4 µM | 0.683 µM |  |  | > 100 µM
20 | CC(=O)N(C1=C(N(C)C)C(=O)c2ccccc2C1=O)c1ccc(F)c(F)c1 |  |  | 0.0161 µM | 0.0411 µM |  |  | 2.36 µM
21 | CCOC(=O)c1cnc2c(C)cc(C)cc2c1Nc1ccc(C(C)=O)cc1 |  |  | 0.749 µM | 0.675 µM |  |  | > 100 µM
22 | Cc1cc2c(cc1C)-c1c(ssc1=Nc1cccc(C)c1C)C(C)(C)N2 |  |  | 8.59 µM | 1.62 µM |  |  | > 100 µM
23 | COc1ccc(C2(C(=O)NCc3ccccc3Cl)CCCC2)cc1OC |  |  | 12 µM | 5.22 µM |  |  | > 100 µM
24 | COC(=O)C1=C(C)NC(=Cc2cc(C)n(-c3ccccc3C(F)(F)F)c2C)C1=O |  |  | 0.0218 µM | 0.071 µM |  |  | > 100 µM
25 | O=C1C2C(C(=O)N1c1ccc(Cl)c(C(F)(F)F)c1)C1(c3ccccc3)C(=O)C2(c2ccccc2)C(c2ccccc2)=C1c1ccccc1 (stereo not drawn) |  |  | 0.442 µM | 0.616 µM |  |  | > 100 µM
26 | COC(=O)c1c(NC(=O)c2cc3ccccc3oc2=O)sc2c1CCC(C)C2 (stereo not drawn) |  |  | > 12.5 µM | > 7.46 µM |  |  | > 100 µM
27 | C[C@@H]1C[C@H]2CC[C@H](O2)[C@H](C)C(=O)O[C@@H](C)C[C@@H]2CC[C@@H](O2)[C@@H](C)C(=O)O[C@H](C)C[C@H]2CC[C@@H](O2)[C@H](C)C(=O)O[C@@H](C)C[C@@H]2CC[C@@H](O2)[C@@H](C)C(=O)O1 [NONACTIN] |  |  | 0.433 µM | 0.359 µM |  |  | 3.53 µM
28 | Cc1onc(-c2ccccc2Cl)c1C(=O)Nc1cc(Cl)ccc1Cl |  |  | 0.369 µM | 0.33 µM |  |  | > 100 µM
29 | Oc1ccc(-c2cncc(NCc3ccc(Cl)cc3)c2)cc1 |  |  | 0.439 µM | 0.405 µM |  |  | > 10 µM
30 | O=C(Nc1ccc(Nc2cc([N+](=O)[O-])ccc2O)c2c1C(=O)c1ccccc1C2=O)c1ccccc1 |  |  | > 1.25 µM | > 0.901 µM |  |  | > 10 µM
31 | COC(=O)C1=C(C(=O)OC)SC(=C2C(=S)C(C)(C)Nc3cc(C)ccc32)S1 |  |  | > 1.14 µM | > 1.25 µM |  |  | > 10 µM
32 | CN(C)CCN1CCN(c2ccnc3cc4ccccc4cc23)CC1 |  |  | 0.108 µM | 0.369 µM |  |  | 1.55 µM
